Measured values from US20250136578A1 (Kolm Therapeutics Inc., priority 2023, published 2025).
Like-named read-outs stand apart in the source and are kept apart here.

Tests used:
AR / CBP ternary complex = AR / CBP ternary complex (Homo sapiens, UniProt P10275+Q92793); experiment: Ternary complex formation assay (sandwich ELISA, AR capture, CBP antibody detection) in VCaP cell lysates; format: cell-based
Method in brief: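 VCaP cells in 5% charcoal-stripped FBS were cultured ≥3 days and then given bifunctional compound for 1.5 h. Lysates went onto AR-antibody-coated plates. Bound CBP (or p300) was detected with a rabbit antibody plus HRP anti-rabbit, using QuantaRed chemifluorescence (ex 570/em 585) read immediately, at 5 min and at 15 min.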

VCaP cells = experiment: VCaP growth inhibition assay (CTG); format: cell-based; details: 30 pM R1881, 9 days
Method in brief: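 VCaP cells in phenol red-free DMEM with 5% charcoal-stripped serum were stimulated with 30 pM R1881 (final) and treated with compound from 100 nM to 10 fM final (1:5 dilutions) for 9 days at 37 °C. Viability was read by CellTiter-Glo luminescence, and IC50 came from 4-parameter logistic fits.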

[1] = treated 1.5 hours, rabbit CBP or p300 antibody detection, average, read-out: Average Ternary Complex

Chain of AR / CBP ternary complex (P10275 whole entry): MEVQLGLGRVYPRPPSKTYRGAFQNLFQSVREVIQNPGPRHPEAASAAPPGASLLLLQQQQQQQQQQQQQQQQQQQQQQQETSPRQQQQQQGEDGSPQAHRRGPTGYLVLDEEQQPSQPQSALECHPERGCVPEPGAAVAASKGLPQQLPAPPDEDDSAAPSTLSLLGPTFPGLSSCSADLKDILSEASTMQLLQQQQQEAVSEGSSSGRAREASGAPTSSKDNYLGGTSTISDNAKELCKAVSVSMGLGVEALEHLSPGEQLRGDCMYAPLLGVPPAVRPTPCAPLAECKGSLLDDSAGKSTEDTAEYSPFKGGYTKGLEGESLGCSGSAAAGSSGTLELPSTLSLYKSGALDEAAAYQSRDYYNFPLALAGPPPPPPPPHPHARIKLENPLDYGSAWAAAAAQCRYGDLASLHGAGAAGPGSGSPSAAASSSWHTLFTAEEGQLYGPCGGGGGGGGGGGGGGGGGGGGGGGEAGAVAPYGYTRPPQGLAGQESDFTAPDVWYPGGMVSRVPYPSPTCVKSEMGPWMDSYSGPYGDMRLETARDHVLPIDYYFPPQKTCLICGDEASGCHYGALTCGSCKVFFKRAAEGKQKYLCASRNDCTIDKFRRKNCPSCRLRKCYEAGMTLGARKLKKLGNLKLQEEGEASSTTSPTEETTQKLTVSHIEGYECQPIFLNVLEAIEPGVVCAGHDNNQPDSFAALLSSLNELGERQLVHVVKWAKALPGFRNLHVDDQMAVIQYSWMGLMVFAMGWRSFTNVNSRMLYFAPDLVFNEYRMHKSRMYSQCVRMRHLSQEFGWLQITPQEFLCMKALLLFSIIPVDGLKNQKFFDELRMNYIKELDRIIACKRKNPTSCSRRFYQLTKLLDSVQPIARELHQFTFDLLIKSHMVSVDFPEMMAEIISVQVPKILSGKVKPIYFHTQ
Chain of AR / CBP ternary complex (Q92793 2-2442): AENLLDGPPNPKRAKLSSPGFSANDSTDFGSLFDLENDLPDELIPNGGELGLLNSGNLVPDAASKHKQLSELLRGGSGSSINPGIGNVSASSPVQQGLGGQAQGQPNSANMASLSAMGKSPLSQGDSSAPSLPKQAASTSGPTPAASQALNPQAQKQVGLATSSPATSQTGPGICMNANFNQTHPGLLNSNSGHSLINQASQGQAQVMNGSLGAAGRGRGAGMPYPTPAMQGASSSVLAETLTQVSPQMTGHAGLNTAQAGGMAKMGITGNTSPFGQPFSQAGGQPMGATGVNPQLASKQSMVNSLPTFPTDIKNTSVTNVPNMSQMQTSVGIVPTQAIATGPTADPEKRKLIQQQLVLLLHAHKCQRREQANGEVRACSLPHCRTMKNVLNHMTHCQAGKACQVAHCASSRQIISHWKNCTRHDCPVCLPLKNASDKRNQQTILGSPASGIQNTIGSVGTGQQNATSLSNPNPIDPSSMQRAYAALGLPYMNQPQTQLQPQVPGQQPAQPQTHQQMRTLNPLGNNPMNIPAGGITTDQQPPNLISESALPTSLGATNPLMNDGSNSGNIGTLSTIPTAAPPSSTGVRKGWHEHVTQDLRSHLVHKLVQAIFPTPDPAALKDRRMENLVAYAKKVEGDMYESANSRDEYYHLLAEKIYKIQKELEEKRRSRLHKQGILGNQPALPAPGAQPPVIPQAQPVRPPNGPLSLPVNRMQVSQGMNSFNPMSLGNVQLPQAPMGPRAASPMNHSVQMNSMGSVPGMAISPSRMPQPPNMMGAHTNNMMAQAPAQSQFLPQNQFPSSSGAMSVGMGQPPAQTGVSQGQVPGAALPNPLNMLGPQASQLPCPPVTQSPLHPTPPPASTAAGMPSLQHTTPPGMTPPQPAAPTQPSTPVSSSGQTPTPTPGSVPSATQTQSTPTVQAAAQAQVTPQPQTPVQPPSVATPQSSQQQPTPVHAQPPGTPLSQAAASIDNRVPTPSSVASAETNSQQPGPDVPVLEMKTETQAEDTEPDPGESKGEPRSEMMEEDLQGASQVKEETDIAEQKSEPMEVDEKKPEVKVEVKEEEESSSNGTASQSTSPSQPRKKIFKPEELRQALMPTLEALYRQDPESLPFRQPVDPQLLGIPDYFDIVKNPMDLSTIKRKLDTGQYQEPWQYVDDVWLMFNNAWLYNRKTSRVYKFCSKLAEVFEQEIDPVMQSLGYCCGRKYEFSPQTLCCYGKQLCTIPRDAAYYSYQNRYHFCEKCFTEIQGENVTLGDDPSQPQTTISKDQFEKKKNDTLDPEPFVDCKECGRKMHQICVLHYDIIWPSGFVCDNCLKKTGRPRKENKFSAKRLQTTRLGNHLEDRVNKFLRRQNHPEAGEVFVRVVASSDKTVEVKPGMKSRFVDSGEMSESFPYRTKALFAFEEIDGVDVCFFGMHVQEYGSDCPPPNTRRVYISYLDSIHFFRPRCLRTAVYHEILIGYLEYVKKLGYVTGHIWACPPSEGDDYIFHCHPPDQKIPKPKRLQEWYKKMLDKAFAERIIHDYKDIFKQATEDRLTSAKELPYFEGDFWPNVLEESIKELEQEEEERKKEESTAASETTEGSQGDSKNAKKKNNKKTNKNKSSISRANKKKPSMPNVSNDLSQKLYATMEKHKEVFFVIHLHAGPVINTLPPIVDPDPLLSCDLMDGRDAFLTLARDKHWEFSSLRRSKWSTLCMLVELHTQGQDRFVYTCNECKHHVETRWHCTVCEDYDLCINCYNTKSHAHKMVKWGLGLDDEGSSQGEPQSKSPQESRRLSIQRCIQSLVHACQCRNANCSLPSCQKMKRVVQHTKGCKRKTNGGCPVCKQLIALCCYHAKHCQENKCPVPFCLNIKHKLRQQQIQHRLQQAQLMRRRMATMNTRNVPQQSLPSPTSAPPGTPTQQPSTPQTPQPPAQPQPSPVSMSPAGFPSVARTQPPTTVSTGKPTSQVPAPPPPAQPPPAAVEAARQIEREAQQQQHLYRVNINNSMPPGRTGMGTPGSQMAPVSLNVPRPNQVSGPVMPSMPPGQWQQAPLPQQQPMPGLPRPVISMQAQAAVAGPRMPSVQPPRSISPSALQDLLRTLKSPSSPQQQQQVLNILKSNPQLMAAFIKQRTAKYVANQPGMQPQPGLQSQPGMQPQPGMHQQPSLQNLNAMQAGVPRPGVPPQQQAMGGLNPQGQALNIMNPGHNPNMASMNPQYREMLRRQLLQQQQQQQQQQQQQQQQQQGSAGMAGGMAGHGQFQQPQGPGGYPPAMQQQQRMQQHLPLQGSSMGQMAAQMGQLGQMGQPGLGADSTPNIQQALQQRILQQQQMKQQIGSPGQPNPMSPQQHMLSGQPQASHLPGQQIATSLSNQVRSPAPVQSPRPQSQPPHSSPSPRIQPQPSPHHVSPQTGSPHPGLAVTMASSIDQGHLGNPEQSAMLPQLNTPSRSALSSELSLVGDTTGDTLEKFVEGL

| Structure (SMILES) | EC50 (AR / CBP ternary complex; [1]) | IC50 (VCaP cells; Homo sapiens, 216 h) | IC50 (VCaP cells) | EC50 (AR / CBP ternary complex; read-out: Average Ternary Complex, treated 1.5 hours, rabbit CBP or p300 antibody detection) |
| --- | --- | --- | --- | --- |
| CC(=O)N1CCc2c(c(N3CCCc4cc(-c5cnn(C)c5)c(C)cc43)nn2C2CCN(C3CCC4(CC3)CN(c3ccc(C(=O)N[C@H]5CC[C@H](Oc6ccc(C#N)c(C)c6)CC5)nn3)C4)CC2)C1 [Compound 298, 6-[7-[4-[5-acetyl-3-[7-methyl-6-(1-methylpyrazol-4-yl)-3,4-dihydro-2H-quinolin-1-yl]-6,7-dihydro-4H-pyrazolo[4,3-c]pyridin-1-yl]-1-piperidyl]-2-azaspiro[3.5]nonan-2-yl]-N-[4-(4-cyano-3-methyl-phenoxy)cyclohexyl] pyridazine-3-carboxamide] | < 1 nM | 0.1 to 1 nM |  |  |
| CC(=O)N1CCc2c(c(N3CCCc4cc(-c5cnn(C)c5)c(C(F)F)cc43)nn2[C@H]2CC[C@@]3(CCN(C4CN(c5ccc(C(=O)N[C@H]6CC[C@H](Oc7ccc(C#N)c(Cl)c7)CC6)nn5)C4)C3)CC2)C1 [Compound 263, 6-[3-[8-[5-acetyl-3-[7-(difluoromethyl)-6-(1-methylpyrazol-4-yl)-3,4-dihydro-2H-quinolin-1-yl]-6,7-dihydro-4H-pyrazolo[4,3-c]pyridin-1-yl]-2-azaspiro[4.5]decan-2-yl]azetidin-1-yl]-N-[4-(3-chloro-4-cyano-phenoxy)cyclohexyl]pyridazine-3-carboxamide] | < 1 nM | ≤ 0.1 nM |  |  |
| CC(=O)N1CCc2c(c(N3CCCc4cc(-c5cnn(C)c5)c(C(F)F)cc43)nn2C2CCN(C[C@H]3[C@H](C)CN(c4ccc(C(=O)N[C@H]5CC[C@H](Oc6ccc(C#N)c(Cl)c6C)CC5)nn4)C[C@@H]3C)CC2)C1 [Compound 287, 6-[4-[[4-[5-acetyl-3-[7-(difluoromethyl)-6-(1-methylpyrazol-4-yl)-3,4-dihydro-2H-quinolin-1-yl]-6,7-dihydro-4H-pyrazolo[4,3-c]pyridin-1-yl]-1-piperidyl]methyl]-3,5-dimethyl-1-piperidyl]-N-[4-(3-chloro-4-cyano-2-methyl-phenoxy)cyclohexyl]pyridazine-3-carboxamide] | < 1 nM | ≤ 0.1 nM |  |  |
| CC(=O)N1CCc2c(c(N3CCCc4cc(-c5cnn(C)c5)c(C(F)F)cc43)nn2C2CCN(C(=O)C3CCN(c4ccc(C(=O)N[C@H]5CC[C@H](Oc6ccc(C#N)c(Cl)c6)CC5)cn4)CC3)CC2)C1 [Compound 158, 6-[4-[4-[5-acetyl-3-[7-(difluoromethyl)-6-(1-methylpyrazol-4-yl)-3,4-dihydro-2H-quinolin-1-yl]-6,7-dihydro-4H-pyrazolo[4,3-c]pyridin-1-yl]piperidine-1-carbonyl]-1-piperidyl]-N-[4-(3-chloro-4-cyano-phenoxy)cyclohexyl]pyridine-3-carboxamide] | 1 to 10 nM | 0.1 to 1 nM |  |  |
| CC(=O)N1CCc2c(c(N3CCCc4cc(-c5cnn(C)c5)c(C(F)F)cc43)nn2[C@H]2CC[C@@]3(CCCN(c4ccc(C(=O)N[C@H]5CC[C@H](Oc6ccc(C#N)c(Cl)c6)CC5)nn4)C3)CC2)C1 [Compound 267, 6-[9-[5-acetyl-3-[7-(difluoromethyl)-6-(1-methylpyrazol-4-yl)-3,4-dihydro-2H-quinolin-1-yl]-6,7-dihydro-4H-pyrazolo[4,3-c]pyridin-1-yl]-2-azaspiro[5.5]undecan-2-yl]-N-[4-(3-chloro-4-cyano-phenoxy)cyclohexyl]pyridazine-3-carboxamide] | < 1 nM | 1 to 100 nM |  |  |
| CC(=O)N1CCc2c(c(-c3cccc4cc(-c5ccc(CCC6CC7(C6)CN(c6ccc(C(=O)N[C@H]8CC[C@H](Oc9ccc(C#N)c(Cl)c9)CC8)nn6)C7)nc5)ncc34)nn2C2CCOCC2)C1 [Compound 48] |  | ≤ 0.1 nM |  | < 1 nM |
| CC(=O)N1CCc2c(c(N3CCCc4cc(-c5cnn(C)c5)c(C)cc43)nn2C2CCN(CC3CCN(c4ccc(C(=O)N[C@H]5CC[C@H](Oc6ccc(C#N)c(C)c6C)CC5)nn4)CC3(C)C)CC2)C1 (stereo partly drawn) [Compound 292, 6-[4-[[4-[5-acetyl-3-[7-methyl-6-(1-methylpyrazol-4-yl)-3,4-dihydro-2H-quinolin-1-yl]-6,7-dihydro-4H-pyrazolo[4,3-c]pyridin-1-yl]-1-piperidyl]methyl]-3,3-dimethyl-1-piperidyl]-N-[4-(4-cyano-2,3-dimethyl-phenoxy)cyclohexyl]pyridazine-3-carboxamide] | < 1 nM | ≤ 0.1 nM |  |  |
| CC(=O)N1CCc2c(c(N3CCCc4cc(-c5cnn(C)c5)c(C)cc43)nn2C2CCN(CC3CCN(c4ccc(C(=O)N[C@H]5CC[C@H](Oc6ccc(C#N)c(Cl)c6)CC5)nn4)CC3(C)C)CC2)C1 (stereo partly drawn) [Compound 282, 6-[4-[[4-[5-acetyl-3-[7-methyl-6-(1-methylpyrazol-4-yl)-3,4-dihydro-2H-quinolin-1-yl]-6,7-dihydro-4H-pyrazolo[4,3-c]pyridin-1-yl]-1-piperidyl]methyl]-3,3-dimethyl-1-piperidyl]-N-[4-(3-chloro-4-cyano-phenoxy)cyclohexyl]pyridazine-3-carboxamide] | < 1 nM | 0.1 to 1 nM |  |  |
| CC(=O)N1CCc2c(c(N3CCCc4cc(-c5ccc(N6CC(N7CCN(c8ccc(C(=O)N[C@H]9CC[C@H](Oc%10ccc(C#N)c(Cl)c%10)CC9)nn8)CC7)C6)nc5)c(C(F)F)cc43)nn2C2CCOCC2)C1 [Compound 216] | < 1 nM | ≤ 0.1 nM |  |  |
| CC(=O)N1CCc2c(c(N3CCCc4cc(-c5cnn(C)c5)c(C(F)F)cc43)nn2C2CCN(C3CCC(C#Cc4ccc(C(=O)N[C@H]5CC[C@H](Oc6ccc(C#N)c(Cl)c6)CC5)nn4)CC3)CC2)C1 (stereo partly drawn) [Compound 194, 6-[2-[4-[4-[5-acetyl-3-[7-(difluoromethyl)-6-(1-methylpyrazol-4-yl)-3,4-dihydro-2H-quinolin-1-yl]-6,7-dihydro-4H-pyrazolo[4,3-c]pyridin-1-yl]-1-piperidyl]cyclohexyl]ethynyl]-N-[4-(3-chloro-4-cyano-phenoxy)cyclohexyl]pyridazine-3-carboxamide] | < 1 nM | ≤ 0.1 nM |  |  |

Further lines, with some results ahead:

| EC50 (AR / CBP ternary complex; [1]) | IC50 (VCaP cells; Homo sapiens, 216 h) | IC50 (VCaP cells) | Structure (SMILES) | EC50 (AR / CBP ternary complex; read-out: Average Ternary Complex, treated 1.5 hours, rabbit CBP or p300 antibody detection) |
| --- | --- | --- | --- | --- |
| < 1 nM | ≤ 0.1 nM |  | CC(=O)N1CCc2c(c(-c3cccc4cc(-c5ccc(N6CC(C7CCN(c8ccc(C(=O)N[C@H]9CC[C@H](Oc%10ccc(C#N)c(Cl)c%10)CC9)nn8)CC7)C6)nc5)ncc34)nn2C2CCOCC2)C1 [Compound 181] |  |
| < 1 nM | ≤ 0.1 nM |  | CC(=O)N1CCc2c(c(-c3cccc4cc(-c5cnn(C)c5)ncc34)nn2C2CCN(CC3CCN(c4ccc(C(=O)N[C@H]5CC[C@H](Oc6ccc(C#N)c(Cl)c6)CC5)nn4)CC3(C)C)CC2)C1 (stereo partly drawn) [Compound 280] |  |
| < 1 nM | 0.1 to 1 nM |  | CC(=O)N1CCc2c(c(N3CCCc4cc(-c5cnn(C)c5)c(C(F)F)cc43)nn2C2CCC(CC3CCN(c4ccc(C(=O)N[C@H]5CC[C@H](Oc6ccc(C#N)c(Cl)c6)CC5)nn4)CC3)CC2)C1 (stereo partly drawn) [Compound 155, 6-[4-[[4-[5-acetyl-3-[7-(difluoromethyl)-6-(1-methylpyrazol-4-yl)-3,4-dihydro-2H-quinolin-1-yl]-6,7-dihydro-4H-pyrazolo[4,3-c]pyridin-1-yl]cyclohexyl]methyl]-1-piperidyl]-N-[4-(3-chloro-4-cyano-phenoxy)cyclohexyl]pyridazine-3-carboxamide] |  |
| < 1 nM | 0.1 to 1 nM |  | CC(=O)N1CCc2c(c(N3CCCc4cc(C#N)ccc43)nn2C2CC3(C2)CN(CC2CC4(C2)CN(c2ccc(C(=O)N[C@H]5CC[C@H](Oc6ccc(C#N)c(Cl)c6)CC5)nn2)C4)C3)C1 (stereo partly drawn) [Compound 45, 6-[6-[[6-[5-acetyl-3-(6-cyano-3,4-dihydro-2H-quinolin-1-yl)-6,7-dihydro-4H-pyrazolo[4,3-c]pyridin-1-yl]-2-azaspiro [3.3]heptan-2-yl]methyl]-2-azaspiro[3.3]heptan-2-yl]-N-[4-(3-chloro-4-cyano-phenoxy)cyclohexyl] pyridazine-3-carboxamide] |  |
| < 1 nM |  | ≤ 0.1 nM | CC(=O)N1CCc2c(c(N3CCCc4cc(-c5cnn(C)c5)c(C(F)F)cc43)nn2C2CCN(C[C@H]3CCN(c4ccc(C(=O)N[C@H]5CC[C@H](Oc6ccc(C#N)c(Cl)c6)CC5)nn4)C[C@H]3C)CC2)C1 (stereo in doubt) [Compound 101, 6-[4-[[4-[5-acetyl-3-[7-(difluoromethyl)-6-(1-methylpyrazol-4-yl)-3,4-dihydro-2H-quinolin-1-yl]-6,7-dihydro-4H-pyrazolo[4,3-c]pyridin-1-yl]-1-piperidyl]methyl]-3-methyl-1-piperidyl]-N-[4-(3-chloro-4-cyano-phenoxy)cyclohexyl]pyridazine-3-carboxamide] |  |
| 1 to 10 nM | 0.1 to 1 nM |  | COC(=O)N1c2ccc3c(nc(Cc4ccccc4)n3[C@@H]3CCC[C@H](OCC4CCN(c5ccc(C(=O)N[C@H]6CC[C@H](Oc7ccc(C#N)c(Cl)c7)CC6)nn5)CC4)C3)c2CC[C@@H]1C [Compound 257] |  |
| < 1 nM | 0.1 to 1 nM |  | COC(=O)N1c2ccc3c(nc(Cc4ccccc4)n3[C@@H]3CCC[C@H](OC4CCN(c5ccc(C(=O)N[C@H]6CC[C@H](Oc7ccc(C#N)c(Cl)c7)CC6)nn5)CC4)C3)c2CC[C@@H]1C [Compound 244, methyl (7S)-2-benzyl-3-[3-[[1-[6-[[4-(3-chloro-4-cyano-phenoxy)cyclohexyl]carbamoyl]pyridazin-3-yl]-4-piperidyl]oxy]cyclohexyl]-7-methyl-8,9-dihydro-7H-imidazo[4,5-f]quinoline-6-carboxylate] |  |
| 1 to 10 nM | 1 to 100 nM |  | COC(=O)N1c2ccc3c(nc(Cc4ccccc4)n3[C@@H]3CCC[C@H](OCCN4CCN(c5ccc(C(=O)N[C@H]6CC[C@H](Oc7ccc(C#N)c(Cl)c7)CC6)nn5)CC4)C3)c2CC[C@@H]1C [Compound 270, methyl (7S)-2-benzyl-3-[3-[2-[4-[6-[[4-(3-chloro-4-cyano-phenoxy)cyclohexyl]carbamoyl]pyridazin-3-yl]piperazin-1-yl]ethoxy]cyclohexyl]-7-methyl-8,9-dihydro-7H-imidazo[4,5-f]quinoline-6-carboxylate] |  |
